ChEMBL document CHEMBL2331209, “Mechanistic studies of the inactivation of tyrosinase by resorcinol” (Bioorg Med Chem, 2013)

Experiments:
[1] = target: T1, Tyrosinase (Homo sapiens) (UniProt P14679); experiment: Inactivation of tyrosinase (unknown origin) assessed as initial rate of oxygen utilization using 4-methylcatechol substrate at 850 uM equimolar concentrations resorcinol by spectrophotometry
T1 sequence (whole entry): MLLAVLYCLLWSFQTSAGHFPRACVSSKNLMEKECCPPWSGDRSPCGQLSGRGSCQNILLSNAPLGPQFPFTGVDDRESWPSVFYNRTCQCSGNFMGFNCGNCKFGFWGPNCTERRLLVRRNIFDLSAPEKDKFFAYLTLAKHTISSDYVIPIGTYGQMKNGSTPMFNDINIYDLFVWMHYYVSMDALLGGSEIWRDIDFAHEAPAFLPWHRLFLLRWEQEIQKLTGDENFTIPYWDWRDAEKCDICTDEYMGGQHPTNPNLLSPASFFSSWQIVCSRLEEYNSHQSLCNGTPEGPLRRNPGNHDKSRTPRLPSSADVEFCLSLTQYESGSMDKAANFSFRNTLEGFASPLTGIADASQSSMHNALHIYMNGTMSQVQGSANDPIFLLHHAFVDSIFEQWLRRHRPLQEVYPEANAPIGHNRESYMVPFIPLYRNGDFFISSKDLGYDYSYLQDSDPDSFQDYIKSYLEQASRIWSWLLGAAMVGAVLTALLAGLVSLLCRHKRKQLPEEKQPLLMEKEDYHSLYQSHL

[2] = target: T1, Tyrosinase (Homo sapiens); experiment: Inactivation of tyrosinase (unknown origin) assessed as total oxygen uptake using 4-methylcatechol substrate at 850 uM equimolar concentrations resorcinol by spectrophotometry
[3] = target: T1, Tyrosinase (Homo sapiens); experiment: Inactivation of tyrosinase (unknown origin) assessed as decay half-life using 4-methylcatechol substrate at 850 uM equimolar concentrations resorcinol by spectrophotometry
[4] = target: T1, Tyrosinase (Homo sapiens); experiment: Inactivation of tyrosinase (unknown origin) assessed as initial rate of oxygen utilization at absorbance 400 nm using 4-methylcatechol substrate at 850 uM equimolar concentrations resorcinol by spectrophotometry
[5] = target: T1, Tyrosinase (Homo sapiens); experiment: Inactivation of tyrosinase (unknown origin) assessed as initial rate of oxygen utilization using 4-methylcatechol substrate at 850 uM by spectrophotometry
[6] = target: T1, Tyrosinase (Homo sapiens); experiment: Inactivation of tyrosinase (unknown origin) assessed as initial rate of oxygen utilization at absorbance 400 nm using 4-methylcatechol substrate at 850 uM by spectrophotometry
[7] = target: T1, Tyrosinase (Homo sapiens); experiment: Inactivation of tyrosinase (unknown origin) assessed as decay half-life using 4-methylcatechol substrate at 850 uM by spectrophotometry
[8] = target: T1, Tyrosinase (Homo sapiens); experiment: Inactivation of tyrosinase (unknown origin) assessed as total oxygen uptake using 4-methylcatechol substrate at 850 uM by spectrophotometry

Activity [1] | Activity [2] | Decay half-life [3] | Activity [4] | Activity [5] | Activity [6] | Activity [7] | Activity [8] | Structure (SMILES)
18% | 30% | 48% | 28% | – | – | – | – | Oc1ccc(F)c(O)c1F
1% | 0% | – | < 1% | – | – | – | – | CCc1ccc(O)cc1O
60% | 69% | 72% | 79% | – | – | – | – | Oc1cccc(O)c1Cl
33% | 35% | 68% | 40% | – | – | – | – | Oc1cccc(O)c1F
95% | 75% | 81% | 133% | – | – | – | – | Oc1cc(O)cc(O)c1
6% | 0% | – | 10% | – | – | – | – | Oc1ccc(F)c(O)c1
100% | 100% | – | 100% | – | – | – | – | Oc1cccc(O)c1O
– | – | – | – | 32% | 26% | 75% | 37% | Oc1cccc(O)c1
105% | 90% | 82% | 103% | – | – | – | – | Cc1c(O)cccc1O

The next lines start with the compound.

Structure (SMILES) | Activity [1] | Activity [2] | Decay half-life [3] | Activity [4] | Activity [5] | Activity [6] | Activity [7] | Activity [8]
Oc1cc(O)c(F)cc1F | 30% | 29% | 83% | 30% | – | – | – | –
Cc1cc(O)cc(O)c1 | 63% | 28% | 31% | 46% | – | – | – | –
COc1cc(O)cc(O)c1 | 64% | 26% | 22% | 62% | – | – | – | –
Cc1cc(O)c(C)c(O)c1 | 97% | 117% | 82% | 103% | – | – | – | –
Oc1c(F)c(O)c(F)c(F)c1F | 91% | 75% | 97% | 86% | – | – | – | –
Oc1cc(O)cc(F)c1 | 67% | 52% | 122% | 46% | – | – | – | –
Oc1cc(O)c(Cl)cc1Cl | 29% | 33% | 160% | 22% | – | – | – | –
Oc1c(Cl)cc(Cl)c(O)c1Cl | 110% | 86% | 73% | 105% | – | – | – | –
Oc1cc(F)cc(O)c1F | 41% | 31% | 74% | 51% | – | – | – | –
Cc1cc(C)c(O)cc1O | 46% | 69% | 193% | 57% | – | – | – | –
